According to patent publication US20170049845A1, “METHODS OF TREATING ALZHEIMER'S DISEASE, HUNTINGTON'S DISEASE, AUTISM, OR OTHER DISORDERS” (Northwestern University, priority 2011, published 2017):
Residues, ends and D or L forms follow the SMILES beside them.

Key:
[1] = tested on: Schaffer collateral-CA1 synapses; test: hAβ-induced impairment of LTP at Schaffer collateral-CA1 synapses in acute hippocampal slices; assay type: cell-based, rat; settings: high-frequency Schaffer collateral stimulation 30 min later
Source text: FIG. 5 depicts rescue of Aβ impairment of long-term potentiation (LTP) of synaptic transmission at Schaffer collateral-CA1 synapses in hippocampal slices in presence of GLYX-13. A: Time course of the effect of pressure ejection of Aβ(1-42) into stratum radiatum of field CA1 (Aβ injections; 12 psi/100 ms; filled circles; n=10) on basal synaptic transmission and LTP induced by high-frequency stimulus trains (3×100 Hz/500 ms), compared to vehicle (TFE) injection (open circles; n=8). B: Time course of the effect of pressure ejection of Aβ(1-42) into stratum radiatum of field CA1 in the presence of 1 μM Glyx-13 (Aβ injections; 12 psi/100 ms; filled circles; n=8) on basal synaptic transmission and LTP induced by high-frequency stimulus trains (3×100 Hz/500 ms), compared to vehicle (TFE) injection (open circles; n=8). C: Time course of the effect of pressure ejection of Aβ(1-42) into stratum radiatum of field CA1 in the presence of 1 μM D-cycloserine (Aβ injections; 12 psi/100 ms; filled circles; n=7) on basal synaptic transmission and LTP induced by high-frequency stimulus trains (3×100 Hz/500 ms), compared to vehicle (TFE) injection (open circles; n=8). D: Time course of the effect of pressure ejection of Aβ(1-42) into stratum radiatum of field CA1 in the presence of 100 μM D-Serine (Aβ injections; 12 psi/100 ms; filled circles; n=8) on basal synaptic transmission and LTP induced by high-frequency stimulus trains (3×100 Hz/500 ms), compared to vehicle (TFE) injection (open circles; n=8). Each point in A, B and C is mean±SEM normalized fEPSP slope.
We pressure ejected hAβ in the absence or presence of Glyx-13, D-cycloserine or the full agonist D-serine, into the Schaffer collateral synaptic field in CA1 stratum radiatum of acute in vitro rat hippocampal slices and attempted to evoke LTP 30 min later. FIG. 5A illustrates that hAβ alone caused a significant reduction (˜20%) in the magnitude of LTP elicited by high-frequency Schaffer collateral stimulation.

low-line rats = test: Conspecific play induced pro-social USVs in low-line rats (autism model); assay type: in vivo, rat; settings: adolescent male low-line rats, 50 mg/kg s.c. 15 min before testing, vs vehicle, P<0.05
Method: FIG. 2 depicts Mean±SEM (A) rates of conspecific play induced pro-social USVs (frequency-modulated 50 kHz calls) in adolescent male low-line rats pretreated with vehicle (1 mg/ml sterile saline s.c.) or (B) GLYX-13 (50 mg/kg s.c.) […] before the start of testing using a within-subjects design. (C) Proportion of total conspecific play induced USVs that were monotonous (i.e., bandwidth less than 7 kHz; n=9 per group. *P<0.05 Fisher PLSD post hoc test, 2 tailed.
Core symptoms of autism (1) deficits in social emotions and motivations, 2) communication problems, and 3) a high incidence of motor abnormalities, especially repetitive behaviors) can be modeled in part in animals using the following behavioral measures, respectively: (1) reduced time spent in social contact; (2) reduced rates of pro-social vocalizations, and (3) disrupted ultrasonic vocalization patterns.
The proportion of total conspecific play induced USVs that were monotonous (i.e., bandwidth less than 7 kHz) is shown in FIG. 2C. n=9 per group. *P<0.05 Fisher PLSD post hoc test, 2 tailed.

CA1 pyramidal neurons = test: Protection against human b-amyloid (1-42) toxicity in organotypic hippocampal slice cultures (propidium fluorescence); assay type: cell-based; settings: 5 μg/ml hAβ, 24 hr after application
Source text: FIG. 4 depicts delayed neuronal death produced by Aβ(1-42) in organotypic hippocampal slice cultures upon application of GLYX-13; Mean±SEM propidium fluorescence 24 hr after bath application of Aβ(1-42) alone, versus Aβ(1-42) in the presence of indicated concentrations (μg/ml) of Glyx-13 (*, […], Student's t-test compared to Aβ alone).
To determine whether Glyx-13, by renormalizing activation of NMDA receptors, might protect against the toxicity of hAβ to susceptible neurons in a physiological network milieu, we compared the long-term effects of hAβ in the absence and presence of different concentrations of Glyx-13.

HD 51 CAG and WT rats = test: Huntington's disease model, serial operant reversal task, phase 3 pseudo-random testing; assay type: in vivo, rat; settings: subcutaneously 20 minutes prior to task
Method: HD 51 CAG and WT (wild type) rats are used in a Huntington's disease model study, testing cognition with serial operant reversal tasks. Rats are dosed according to the following schedule:
The animals are first placed in an acquisition trial. The acquisition trial is an 8-hour testing period where the animal is reinforced with a sucrose food pellet for a “correct” lever press after a variable interval time of 30 seconds. This task requires the animals to learn which lever needs to be activated to gain reinforcement. The time taken to identify the “correct” lever is measured, as well as the number of reinforcers earned, percentage of “correct” lever presses, and errors made (incorrect lever presses). The acquisition trial is performed with access to water ad libidum. […]
The testing session is conducted using a progressive FR schedule for 25 or 30 days. […] The response rate for the left and right lever is recorded, as well as the total number of lever presses for each side, the total number of lever presses combined for each side in a session, the percentage of “correct” lever presses (“correct” lever presses/left lever presses+right lever presses then multiplied by 100 to obtain a percentage), the total reinforcers earned, and the time to complete each session. The rats are given one day off before the second phase of testing begins, with only the weight of the rats being recorded. […]

autistic individuals = settings: cited from earlier work

In the case of `N[C@H](CO)C(=O)O` [D-serine], the “rescue of LTP after hAβ pressure ejection” value (shortened to “rescue of LTP”) [1] is reported as “nor the full agonist D-serine (100M, FIG. 5D, open circles) was able to rescue LTP”.
For `C[C@@H](O)[C@H](N)C(=O)N1CCC[C@H]1C(=O)N1CCC[C@H]1C(=O)N[C@H](C(N)=O)[C@@H](C)O` [GLYX-13, L-threonyl-L-prolyl-L-prolyl-L-threonine amide] (H-TPPT-NH2), the “proportion of total USVs that are monotonous (bandwidth less than 7 kHz)” value (low-line rats) was “significantly decreased”, the “rates of play inducing pro-social USVs (frequency-modulated 50 kHz calls)” value (low-line rats) was “significantly increased” and the “dose-response relation of neuroprotective potency” value (CA1 pyramidal neurons) was “U-shaped dose-response relation”. The “rescue of LTP” value ([1]; 1 μM bath-applied) was “LTP was restored to normal control levels”, the “percentage of correct lever presses vs saline injections” value (HD 51 CAG and WT rats; HD animals) was “higher percentage trends of correct lever presses” and the “percentage of correct lever presses vs saline injections” value (HD 51 CAG and WT rats; WT animals) was “higher percentage trends of correct lever presses”.
In the case of `N[C@@H]1CONC1=O` [D-cycloserine], the “rescue of LTP” value ([1]; 1 μM bath-applied) is given as “neither the glycine site partial agonist D-cycloserine (1 μM, FIG. 5C, open circles) nor the full agonist D-serine (100M, FIG. 5D, open circles) was able to rescue LTP” and the social withdrawal (autistic individuals; autistic individuals (Posey et al., 2004)) is given as “significantly improved”.
In the case of `Cc1nc2n(c(=O)c1CCN1CCC(c3noc4cc(F)ccc34)CC1)CCCC2` [risperidone], the “hyperactivity and irritability symptoms” value (autistic individuals; autism) is given as “significantly decrease”, the “inappropriate speech or social withdrawal” value (autistic individuals; autism) is given as “little to no effect” and the side effects (autistic individuals; autism) is given as “significant weight gain and sedative side effects”.
